Broadly, the IC50 is the midpoint of a concentration-inhibition curve.

Structures are written as SMILES. Values joined by “and” are separate entries in the source; they are usually repeats but may differ in a detail not shown here. Identical values can stand only once. Like-named read-outs stand apart in the source and are kept apart here.

Here are results for four molecules from patent US9422267B2, “Fused pyrimidine compounds and use thereof” (Medivation Technologies, Inc., priority 2012, dated 2016).

For one experiment, the system named is LNCaP. The experiment can be described thus: Cell Titer-Glo cell viability: LNCaP. Format: cell-based. The settings on record: Homo sapiens. The procedure: (§1) Compound nos. […] This panel of cell lines includes an ER− breast carcinoma, primary breast ductal carcinoma, prostate adenocarcinoma, mammary adenocarcinoma, mammary ductal carcinoma, mammary ductal carcinoma, ovary adenocarcinoma, ER+ breast carcinoma, ER-HER2+ mammary ductal carcinoma and an ER+ mammary ductal carcinoma, respectively.
(§2) This assay quantitates the ATP present in order to determine the number of viable cells in culture. Briefly, the compounds were incubated with the cells for 72 h, followed by cell lysis. The resulting luminescent signal is proportional to the amount of ATP present and, therefore, directly proportional to the number of cells present in culture.
On the technique in general: ATP-based viability assays read luminescence as a measure of living cells.

The target of another experiment is NTRK2 (TRKB) (Homo sapiens, UniProt Q16620). The experiment can be described thus: Caliper kinase profiling: NTRK2 (TRKB). The settings on record: for inhibition at 0.01 µM: read-out: Average % Inh @ 10 nM; for inhibition of TrkB in panel of 11 kinases: 0.01 μM.
The next experiment addresses T1, MET (Homo sapiens, UniProt P08581).
T1 construct: purchased Caliper LifeSciences (ProfilerPro Kinase Selectivity Assay Kits)
The experiment can be described thus: Caliper kinase profiling: MET. The experiment is classed as biochemical. The settings on record: for inhibition at 0.01 µM: 10 nM, read-out: Average % Inh @ 10 nM.

Another experiment deals with A549. The experiment can be described thus: Cell Titer-Glo cell viability: A549. The experiment is classed as cell-based. The settings on record: Homo sapiens, A549, 72 h, A549, non-small lung carcinoma. On the procedure:
as §2
(§3) Compound nos. […] These cell lines are derived from human lung carcinoma, colon adenocarcinoma, colon adenocarcinoma, colon carcinoma, acute promyelocytic leukemia, colon adenocarcinoma, colon adenocarcinoma (from metastatic site lymph node), respectively.
(§4) Compounds 2b, 5, 6b and 10a were tested along with derivatives in viability assays as described above by Caliper LifeSciences Systems (Hanover, Md.), in A549, HCT-15, HCT-116, MCF-7, MDA-MB-231, OVCAR3, T47D, COLO205, HT-29, BT-20, HCC1187, HL-60, MDA-MB-175, SW-620, and UACC812 cells.

The next experiment concerns MDA MB 231. The experiment can be described thus: Cell Titer-Glo cell viability: MDA MB 231. The experiment is classed as cell-based. The settings on record: Homo sapiens, MDAMB231, breast cancer. On the procedure: as §1, §2, §4
A further experiment concerns the target TRKC (NTRK3) (Homo sapiens, UniProt Q16288). The experiment can be described thus: Caliper kinase profiling: TRKC (NTRK3). The settings on record: for inhibition at 0.01 µM: read-out: Average % Inh @ 10 nM; for inhibition of TrkC in panel of 11 kinases: 0.01 μM.
The target in experiment [1] is T2, IGF1R (Homo sapiens, UniProt P08069). The experiment can be described thus: Caliper kinase profiling: IGF1R. Conditions: for inhibition at 0.01 µM: 10 nM, read-out: Average % Inh @ 10 nM. The experiment is classed as biochemical. Further details: purchased Caliper LifeSciences (ProfilerPro Kinase Selectivity Assay Kits).
Method: (§5) The compound was tested at concentrations of 1.0×10^−8 and 1.0×10^−9 M in the RapidKinase192™ panel in duplicate. […] The screening was performed using the Caliper EZReader2, a 4-sipper LabChip, and ProfilerPro Kinase Selectivity Assay Kits 1 and 2. The assay measures the conversion of a fluorescent peptide substrate to a phosphorylated product. Briefly, the reaction mixture was introduced through a capillary sipper onto the microfluidic chip, where the substrate and product were electrophoretically separated and detected by laser-induced fluorescence. The time-dependent fluorescence signal indicates the extent of the reaction.
A further experiment concerns BT-20. The experiment can be described thus: Cell Titer-Glo cell viability: BT-20. Conditions: Homo sapiens. Format: cell-based. On the procedure: as §1, §2, §4
A further experiment has as its target T3, AurA (Homo sapiens, UniProt O14965).
T3 sequence (O14965 1-403): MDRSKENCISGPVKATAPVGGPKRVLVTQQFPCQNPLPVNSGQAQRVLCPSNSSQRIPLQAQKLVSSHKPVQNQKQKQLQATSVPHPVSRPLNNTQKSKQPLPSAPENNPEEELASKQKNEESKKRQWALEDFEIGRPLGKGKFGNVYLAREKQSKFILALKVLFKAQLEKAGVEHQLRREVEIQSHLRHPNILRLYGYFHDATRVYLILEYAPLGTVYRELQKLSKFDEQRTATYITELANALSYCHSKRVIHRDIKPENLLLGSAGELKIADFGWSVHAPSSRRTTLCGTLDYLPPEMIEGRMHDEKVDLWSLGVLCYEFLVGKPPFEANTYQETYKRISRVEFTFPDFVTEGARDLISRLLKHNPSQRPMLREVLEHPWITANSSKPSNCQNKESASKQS
The experiment can be described thus: Caliper kinase profiling: AurA.

The target of experiment [2] is T2, IGF1R. The experiment can be described thus: In vitro IGF-1R enzymatic assay (ADP-Glo kinase assay). Format: biochemical. Set-up: purchased Millipore 14-802. The procedure: IC50 values of the compounds of the invention against IGF-1R and IR were measured in vitro using an ADP-Glo kinase assay Kit (Promega). […] Kinase reactions in both assays were conducted at 30° C. for 20 min with increasing concentrations of compounds of the invention.

Another experiment deals with T4, PYK2 (Homo sapiens, UniProt Q14289).
T4 construct: purchased Caliper LifeSciences (ProfilerPro Kinase Selectivity Assay Kits)
The experiment can be described thus: Caliper kinase profiling: PYK2. Format: biochemical. The settings on record: for inhibition at 0.01 µM: PYK2, 10 nM, read-out: Average % Inh @ 10 nM.

The test system of the next experiment is HCT-15. The experiment can be described thus: Cell Titer-Glo cell viability: HCT-15. The experiment is classed as cell-based. Conditions: Homo sapiens, HCT-15, 72 h, HCT15, colon carcinoma. On the procedure: as §2, §3, §4
The next experiment concerns HCC 1187. The experiment can be described thus: Cell Titer-Glo cell viability: HCC 1187. The experiment is classed as cell-based. The settings on record: Homo sapiens. The procedure: as §1, §2, §4
The mark [3] stands for this setting: 1 nM, read-out: Average % Inh @ 1 nM.
[4] abbreviates: IGF-1R, ATP 100 μM, run N1, read-out: IC50 (M) N1.
[5] abbreviates: IGF-1R, ATP 100 μM, run N2, read-out: IC50 (M) N2.
Setting [6] is: activated IGF-1R, read-out: IC50.
Setting [7] is: Prostate cancer, 72 h incubation, Cell Titer-Glo.
[8] abbreviates: 72 h incubation, Cell Titer-Glo.
The mark [9] stands for this setting: BT-20, breast cancer, 72 h incubation, Cell Titer-Glo.
Setting [10] is: HCC1187, HCC-1187, breast cancer, 72 h incubation, Cell Titer-Glo.
Setting [11] is: read-out: Average % Inh @ 100 nM.
[12] abbreviates: 100 nM, read-out: Average % Inh @ 100 nM.
The mark [13] stands for this setting: 1 μM, read-out: Average % Inh @ 1 μM.

T2 sequence (P08069 31-1367): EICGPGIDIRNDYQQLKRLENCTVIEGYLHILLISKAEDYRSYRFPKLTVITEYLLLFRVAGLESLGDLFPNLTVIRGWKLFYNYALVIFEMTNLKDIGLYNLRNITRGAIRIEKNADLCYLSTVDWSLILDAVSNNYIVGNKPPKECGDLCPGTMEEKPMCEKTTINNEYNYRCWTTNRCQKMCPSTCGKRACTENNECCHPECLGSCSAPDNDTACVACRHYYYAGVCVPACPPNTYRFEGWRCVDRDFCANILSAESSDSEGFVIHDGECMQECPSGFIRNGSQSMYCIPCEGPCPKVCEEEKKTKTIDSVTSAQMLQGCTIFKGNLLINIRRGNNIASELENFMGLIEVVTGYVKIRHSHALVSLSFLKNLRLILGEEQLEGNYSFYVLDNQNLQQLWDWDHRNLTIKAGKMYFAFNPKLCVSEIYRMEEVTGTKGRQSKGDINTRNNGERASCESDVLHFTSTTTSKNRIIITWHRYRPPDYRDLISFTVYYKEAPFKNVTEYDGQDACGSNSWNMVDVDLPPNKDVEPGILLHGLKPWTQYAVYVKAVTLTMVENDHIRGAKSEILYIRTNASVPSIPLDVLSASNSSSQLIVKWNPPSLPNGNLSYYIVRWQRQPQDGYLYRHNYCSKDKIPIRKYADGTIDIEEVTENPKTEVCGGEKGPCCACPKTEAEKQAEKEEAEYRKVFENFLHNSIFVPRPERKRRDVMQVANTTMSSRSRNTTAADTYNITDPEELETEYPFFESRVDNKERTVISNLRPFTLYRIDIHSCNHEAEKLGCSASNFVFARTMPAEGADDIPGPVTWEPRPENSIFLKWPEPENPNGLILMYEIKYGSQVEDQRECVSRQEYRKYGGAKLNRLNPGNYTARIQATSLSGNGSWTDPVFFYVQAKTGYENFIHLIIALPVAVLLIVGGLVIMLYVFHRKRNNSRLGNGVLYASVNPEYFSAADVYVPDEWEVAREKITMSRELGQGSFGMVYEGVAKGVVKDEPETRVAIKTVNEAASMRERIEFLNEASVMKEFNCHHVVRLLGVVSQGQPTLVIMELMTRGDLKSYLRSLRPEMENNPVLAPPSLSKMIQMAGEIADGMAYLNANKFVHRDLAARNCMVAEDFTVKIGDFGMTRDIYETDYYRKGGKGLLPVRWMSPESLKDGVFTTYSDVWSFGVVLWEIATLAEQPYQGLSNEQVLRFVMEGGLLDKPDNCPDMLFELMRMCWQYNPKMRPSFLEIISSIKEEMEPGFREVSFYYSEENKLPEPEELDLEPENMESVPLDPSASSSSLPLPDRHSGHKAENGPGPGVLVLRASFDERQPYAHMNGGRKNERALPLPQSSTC
Sequence of TRKC (NTRK3) (Q16288 32-839): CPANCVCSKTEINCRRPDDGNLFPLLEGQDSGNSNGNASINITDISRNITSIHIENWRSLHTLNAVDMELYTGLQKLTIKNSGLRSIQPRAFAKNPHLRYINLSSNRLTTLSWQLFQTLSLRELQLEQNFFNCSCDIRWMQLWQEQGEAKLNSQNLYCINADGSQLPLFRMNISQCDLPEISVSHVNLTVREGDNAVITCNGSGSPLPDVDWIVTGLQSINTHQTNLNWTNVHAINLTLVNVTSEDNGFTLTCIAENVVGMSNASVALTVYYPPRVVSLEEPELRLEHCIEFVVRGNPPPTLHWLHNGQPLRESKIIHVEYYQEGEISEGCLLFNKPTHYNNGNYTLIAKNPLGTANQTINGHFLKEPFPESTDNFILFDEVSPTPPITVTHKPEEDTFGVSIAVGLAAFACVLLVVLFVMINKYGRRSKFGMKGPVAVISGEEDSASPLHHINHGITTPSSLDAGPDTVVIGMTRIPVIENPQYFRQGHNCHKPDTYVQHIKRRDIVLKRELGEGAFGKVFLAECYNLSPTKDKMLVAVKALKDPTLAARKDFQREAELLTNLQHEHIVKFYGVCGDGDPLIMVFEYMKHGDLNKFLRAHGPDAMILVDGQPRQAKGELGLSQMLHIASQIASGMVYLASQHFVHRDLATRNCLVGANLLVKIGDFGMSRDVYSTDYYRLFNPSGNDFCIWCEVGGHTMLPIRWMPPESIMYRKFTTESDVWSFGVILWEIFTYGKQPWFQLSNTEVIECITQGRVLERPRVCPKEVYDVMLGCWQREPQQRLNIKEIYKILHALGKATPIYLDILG
Sequence of NTRK2 (TRKB) (Q16620 32-822): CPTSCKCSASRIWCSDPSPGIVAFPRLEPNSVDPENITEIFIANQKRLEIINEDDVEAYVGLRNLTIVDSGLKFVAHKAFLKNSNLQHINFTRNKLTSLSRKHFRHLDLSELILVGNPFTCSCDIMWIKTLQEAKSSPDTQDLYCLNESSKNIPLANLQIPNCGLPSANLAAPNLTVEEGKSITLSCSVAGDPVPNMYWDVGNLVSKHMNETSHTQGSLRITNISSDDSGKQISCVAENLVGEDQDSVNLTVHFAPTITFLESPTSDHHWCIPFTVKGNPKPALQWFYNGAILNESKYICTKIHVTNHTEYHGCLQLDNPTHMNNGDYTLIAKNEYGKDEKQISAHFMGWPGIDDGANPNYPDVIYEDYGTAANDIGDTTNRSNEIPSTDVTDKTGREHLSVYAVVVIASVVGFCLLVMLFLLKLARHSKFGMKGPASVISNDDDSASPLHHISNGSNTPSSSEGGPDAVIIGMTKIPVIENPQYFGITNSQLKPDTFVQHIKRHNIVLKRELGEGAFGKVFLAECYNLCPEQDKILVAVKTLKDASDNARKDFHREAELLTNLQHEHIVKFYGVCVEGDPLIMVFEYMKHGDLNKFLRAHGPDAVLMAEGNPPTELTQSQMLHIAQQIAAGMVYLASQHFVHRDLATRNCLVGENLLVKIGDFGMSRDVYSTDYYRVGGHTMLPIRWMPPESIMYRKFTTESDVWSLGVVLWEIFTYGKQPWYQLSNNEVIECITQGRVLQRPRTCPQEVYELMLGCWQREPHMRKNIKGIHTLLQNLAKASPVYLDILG
T1 sequence (P08581 25-1390): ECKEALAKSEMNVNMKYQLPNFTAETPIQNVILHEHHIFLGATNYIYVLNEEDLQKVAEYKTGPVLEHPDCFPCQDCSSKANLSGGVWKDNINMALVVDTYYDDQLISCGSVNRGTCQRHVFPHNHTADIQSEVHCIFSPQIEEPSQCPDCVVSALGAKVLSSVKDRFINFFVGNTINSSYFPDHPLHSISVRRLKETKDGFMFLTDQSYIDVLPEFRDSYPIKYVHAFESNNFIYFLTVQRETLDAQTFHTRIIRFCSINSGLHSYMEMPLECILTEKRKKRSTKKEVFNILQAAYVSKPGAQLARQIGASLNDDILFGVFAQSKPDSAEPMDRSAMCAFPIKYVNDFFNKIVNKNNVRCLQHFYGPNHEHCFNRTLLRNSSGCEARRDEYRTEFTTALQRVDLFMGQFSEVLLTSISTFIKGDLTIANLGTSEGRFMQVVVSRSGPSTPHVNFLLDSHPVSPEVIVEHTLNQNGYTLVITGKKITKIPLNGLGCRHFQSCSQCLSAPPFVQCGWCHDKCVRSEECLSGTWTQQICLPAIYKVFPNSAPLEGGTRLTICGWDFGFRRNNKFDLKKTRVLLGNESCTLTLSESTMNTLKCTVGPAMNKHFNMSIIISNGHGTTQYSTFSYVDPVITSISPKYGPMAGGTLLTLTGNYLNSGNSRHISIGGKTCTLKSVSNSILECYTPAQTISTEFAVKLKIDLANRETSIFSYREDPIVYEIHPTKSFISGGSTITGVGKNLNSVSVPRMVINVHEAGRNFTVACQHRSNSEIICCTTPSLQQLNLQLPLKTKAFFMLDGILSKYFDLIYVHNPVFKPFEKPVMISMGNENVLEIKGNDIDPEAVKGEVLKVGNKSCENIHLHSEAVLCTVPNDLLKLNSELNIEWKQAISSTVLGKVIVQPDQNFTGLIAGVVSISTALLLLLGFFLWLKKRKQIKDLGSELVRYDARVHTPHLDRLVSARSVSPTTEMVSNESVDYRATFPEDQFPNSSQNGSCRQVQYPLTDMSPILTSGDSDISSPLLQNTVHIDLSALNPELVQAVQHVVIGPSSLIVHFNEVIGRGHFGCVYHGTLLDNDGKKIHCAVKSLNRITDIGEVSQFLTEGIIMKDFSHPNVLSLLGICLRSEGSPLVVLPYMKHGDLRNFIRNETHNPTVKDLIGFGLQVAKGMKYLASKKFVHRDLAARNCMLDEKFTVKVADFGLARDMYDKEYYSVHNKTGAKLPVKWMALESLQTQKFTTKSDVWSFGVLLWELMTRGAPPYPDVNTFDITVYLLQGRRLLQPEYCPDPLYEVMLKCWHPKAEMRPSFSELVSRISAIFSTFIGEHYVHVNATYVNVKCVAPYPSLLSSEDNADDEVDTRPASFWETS
Method for AurA: as §5
(§6) The assays were conducted using the Caliper LabChip 3000 and a 12-sipper LabChip as described above.
Method for NTRK2 (TRKB): as §5
(§7) The kinases tested were AurA, AurB, AurC, AXL, FAK2, IGF1R, InsR, Mer, MET, TrkB and TrkC.
as §6
Method for TRKC (NTRK3): as §5, §7, §6

For `CC(C)c1cc(Nc2nc(N3CCCC3C(=O)Nc3ccc(F)nc3)nc3c2CCC3)n[nH]1` (single isomer, unassigned) [Compound 8b], the IC50 is less than 10000 nM in the experiment with LNCaP (prostate cancer, 72 h); 12.2 nM against NTRK2 (TRKB); less than 10000 nM with A549 (72 h); 10000 nM in the experiment on MDA MB 231 (72 h); 3 nM against TRKC (NTRK3); less than 10000 nM in the experiment on BT-20 (BT-20, BT20, breast cancer, 72 h). In addition, the IC50 against AurA was 132 nM; on IGF1R [2] (setting [4]), 3.11e-09 M; on IGF1R [2] (setting [5]), 5.49e-09 M; on IGF1R [2] (setting [6]), 5.1e-09 M; in the experiment with HCT-15 (72 h) it was less than 10000 nM; in the experiment on HCC 1187 (HCC1187, breast cancer, 72 h), less than 10000 nM. Further, the inhibition at 0.001 µM at NTRK2 (TRKB) (read-out: Average % Inh @ 1 nM) was greater than 60%; at MET (setting [3]), less than 39%; on TRKC (NTRK3) (read-out: Average % Inh @ 1 nM) it was greater than 60%; at IGF1R [1] (setting [3]), less than 39%; at PYK2 (PYK2, 1 nM, read-out: Average % Inh @ 1 nM) it was less than 39%. Besides, the inhibition at 0.01 µM at NTRK2 (TRKB) was greater than 60%; on MET, 40 to 59%; on TRKC (NTRK3) it was greater than 60%; at IGF1R [1], greater than 60%; at PYK2, 40 to 59%. For the same molecule, the “Hill Slope N1” value at IGF1R [2] (IGF-1R, ATP 100 μM, run N1) is given as 1.042. Further, on IGF1R [2] (IGF-1R, ATP 100 μM, run N2), the “Hill Slope N2” value came out at 1.307.

For the molecule `O=C(Nc1cnccn1)C1CCCN1c1nc2c(c(Nc3cc(C4CC4)[nH]n3)n1)CCC2` (single isomer, unassigned) [Compound 6b], the IC50 is 100 nM with LNCaP (setting [7]); less than 1000 nM in the experiment with A549 (setting [8]); less than 1000 nM in the experiment on MDA MB 231 (setting [8]); 1000 nM in the experiment with BT-20 (setting [9]); 6.5e-09 M at IGF1R [2] (setting [6]); 1000 nM in the experiment on HCT-15 (setting [8]). In the experiment on HCC 1187 (setting [10]), the IC50 was less than 1000 nM. Further, at NTRK2 (TRKB), the “inhibition of TrkB in panel of 11 kinases” value is given as “strongly inhibited”. Further, at TRKC (NTRK3), the “inhibition of TrkC in panel of 11 kinases” value is recorded as “strongly inhibited”.

Consider `O=C(Nc1ccc(F)nc1)C1CCN1c1nc2c(c(Nc3cc(C4CC4)[nH]n3)n1)CCC2` (racemic) [Compound 5, 1-(4-(5-cyclopropyl-1H-pyrazol-3-ylamino)-6,7-dihydro-5H-cyclopenta[d]pyrimidin-2-yl)-N-(6-fluoropyridin-3-yl)azetidine-2-carboxamide], for which the IC50 was 100 nM in the experiment on LNCaP (setting [7]); less than 1000 nM in the experiment on A549 (setting [8]); less than 10000 nM in the experiment with MDA MB 231 (setting [8]); less than 10000 nM in the experiment with BT-20 (setting [9]); 1.3e-08 M and 1.7e-08 M at IGF1R [2] (setting [6]); less than 10000 nM in the experiment with HCT-15 (setting [8]). This molecule also returned an IC50 in the experiment with HCC 1187 (setting [10]) of less than 1000 nM. Further, the “inhibition of TrkB in panel of 11 kinases” value at NTRK2 (TRKB) was “strongly inhibited”. Further, the “inhibition of TrkC in panel of 11 kinases” value against TRKC (NTRK3) is reported as “strongly inhibited”. The inhibition at 0.03 µM on IGF1R [2] (activated IGF-1R, 30 nM, average, read-out: % Inh @ 30 nM Avg) stood at 66%.

As to `O=C(Nc1ccc(F)nc1)C1CCCN1c1nc2c(c(Nc3cc(C4CC4)[nH]n3)n1)CCC2` (single isomer, unassigned) [Compound 2b, 1-(4-(5-cyclopropyl-1H-pyrazol-3-ylamino)-6,7-dihydro-5H-cyclopenta[d]pyrimidin-2-yl)-N-(6-fluoropyridin-3-yl)pyrrolidine-2-carboxamide], the IC50 in the experiment with LNCaP (setting [7]) was less than 1000 nM; with A549 (72 h) it was 1000 nM; in the experiment with A549 (setting [8]), less than 1000 nM; in the experiment on MDA MB 231 (setting [8]), 1000 nM; with BT-20 (setting [9]), 1000 nM; on IGF1R [2] (setting [4]) it was 7.24e-09 M. Also, the IC50 on IGF1R [2] (setting [5]) was 5.29e-09 M; on IGF1R [2] (setting [6]), 6.1e-09 M; in the experiment with HCT-15 (72 h), less than 10000 nM; in the experiment on HCT-15 (setting [8]), 1000 nM; in the experiment on HCC 1187 (setting [10]), 100 nM. Also, the inhibition at 0.01 µM was greater than 60% at NTRK2 (TRKB); less than 39% on MET; greater than 60% at TRKC (NTRK3); less than 39% on IGF1R [1]; less than 39% at AurA (read-out: Average % Inh @ 10 nM); less than 39% at PYK2. The inhibition at 0.1 µM on NTRK2 (TRKB) (setting [11]) was greater than 60%; on MET (setting [12]), greater than 60%; on TRKC (NTRK3) (setting [11]) it was greater than 60%; at IGF1R [1] (setting [12]) it was 40 to 59%; at AurA (setting [11]), greater than 60%; at PYK2 (PYK2, 100 nM, read-out: Average % Inh @ 100 nM) it was greater than 60%. Further, the inhibition at 1 µM is greater than 60% at NTRK2 (TRKB) (read-out: Average % Inh @ 1 μM); greater than 60% at MET (setting [13]); greater than 60% at TRKC (NTRK3) (read-out: Average % Inh @ 1 μM); greater than 60% at IGF1R [1] (setting [13]); greater than 60% on AurA (read-out: Average % Inh @ 1 μM); greater than 60% on PYK2 (PYK2, 1 μM, read-out: Average % Inh @ 1 μM). Also, the “Hill Slope N1” value on IGF1R [2] (IGF-1R, ATP 100 μM, run N1) was found to be 1.195. Besides, the “Hill Slope N2” value on IGF1R [2] (IGF-1R, ATP 100 μM, run N2) stood at 1.384.
